US8895738B2, “Mesoionic pyrido [1, 2-A] pyrimidine pesticides” (E I du Pont de Nemours and Company, priority 2010, dated 2014)
Where a name gives a salt, the structure may show the parent alone.

How the values were obtained:
Assay type in all cases: in vivo
[1] = test system: maize plants (Prairie Hybrid 2431 organic field corn); test: Test P: vigor (height) of maize plants in greenhouse in absence of pest pressure, surface drench
Experimental: In this test, the effect of a compound of the invention on the vigor of maize plants grown in a greenhouse in absence of pest pressure was measured.
Single maize seeds (Prairie Hybrid 2431 organic field corn) were planted 2.0 to 2.5 cm deep in 10 cm×10 cm×8 cm plastic pots containing either Redi-Earth sphagnum peat moss-based potting media (Sun Gro Horticulture Canada Ltd., Vancouver, British Columbia) or a 50/50 mixture of Matapeake soil and sand. Seeded pots were initially watered to a 5 cm depth and placed in a growth chamber maintained at 25° C. within a 16 h light/8 h dark photoperiod. The pots were watered whenever the soil surface dried.
After 8 days from initial watering, the potted plants were treated by applying as a surface drench 40 mL of an aqueous treatment mixture containing either 0.2 or 2.5 mg of Compound 3. To the pots of untreated control plants, 40 mL of tap water was similarly applied. Treatments and untreated controls were replicated 10 times.
Treated and untreated plants were then arranged in a complete randomized block design in a greenhouse maintained at 25.6-27.8° C. during the day and 23.0-25.0° C. at night. Supplemental lighting was added when outside light levels dropped below 200 watts m^−2 during a 16-h growing period, except that no supplemental lighting was activated when outside light energy had already accumulated to more than 5000 w h m^−2 during the growing period. Greenhouse shading closed when outside light levels rose above 600 watts m^−2 for more than 20 minutes.
No modifications to relative humidity were made. Tap water irrigation was provided twice daily as needed to maintain soil moisture. Every second or third day the plants were fertilized with irrigation water containing 100 ppm N—P—K from Peters® soluble 20-20-20 general purpose fertilizer (The Scotts Company, Marysville, Ohio, U.S.A.). The applied nutrient levels were considered less that ideal for optimal growth of maize plants.
Plant height was determined at 0, 7, 14, 21 and 28 days after treatment by measuring the length from the vertically extended longest leaf tip to the soil surface. The heights averaged across the 10 replicates are listed in Test Tables 1 and 2 for plants grown in Redi-Earth soil and Matapeake Soil/Sand, respectively.

[2] = test system: Rice plants (indica cultivar); test: Test M: vigor of direct seeded rice crop outdoors, An Giang, Vietnam; conditions: all application rates (6.25, 12.5, 25 or 50 g a.i./ha) with 30 g a.i./ha indoxacarb and 20 g a.i./ha chlorantraniliprole; 18 days after application; Nilaparvata lugens level very low
Experimental: (§1) To evaluate the effect of application of a compound of the invention on the vigor of rice crops grown under outdoor conditions, Tests 1 through 0 were conducted. “a.i.” refers to the amount of active ingredient applied.
Rice plants (indica cultivar) were direct seeded into flooded 6 m×5 m test plots of clay loam soil in An Giang Province of Vietnam shortly before the monsoon, and grown using local agronomic practices. After 42 days, at the beginning of the wet season, aqueous mixtures containing 30 g a.i./ha of indoxacarb in form of STEWARD® Insecticide, 20 g a.i./ha of chlorantraniliprole, and 6.25, 12.5, 25 or 50 g a.i./ha of Compound 3 were applied to the foliage of the rice plants at in a spray volume of 400 L/ha using a motorized sprayer. Plots of control rice plants were sprayed with an aqueous mixture containing 30 g a.i./ha of indoxacarb in form of STEWARD® Insecticide and 20 g a.i./ha of chlorantraniliprole (i.e. no Compound 3). Each treatment and control was replicated three times, and the plots were arranged in a randomized complete block design. At the time of application of Compound 3, the pest level of rice brown planthopper (Nilaparvata lugens) was very low.

[3] = test system: Rice plants (indica cultivar ‘IR 64’); test: Test L: vigor and harvest yield of rice crop outdoors, Dhamtari; conditions: for harvest yield: controls 2630 kg/ha
Experimental: as §1
Rice plants (indica cultivar ‘IR 64’) were transplanted into flooded 6 m×5 m test plots of clay loam soil in the Dhamtari district, State of Chhattisgarh, India, in the early spring season, and grown using local agronomic practices. After 79 days, in the hot season before monsoon arrival, aqueous mixtures containing 30 g a.i./ha of indoxacarb in form of STEWARD® Insecticide, 20 g a.i./ha of chlorantraniliprole, and 6.25, 12.5, 25 or 50 g a.i./ha of Compound 3 were applied to the foliage of the rice plants at in a spray volume of 500 L/ha using a backpack sprayer. Plots of control rice plants were sprayed with an aqueous mixture containing 30 g a.i./ha of indoxacarb in form of STEWARD® Insecticide and 20 g a.i./ha of chlorantraniliprole (i.e. no Compound 3). Each treatment and control was replicated three times, and the plots were arranged in a randomized complete block design. At the time of application of Compound 3, the pest level of rice brown planthopper (Nilaparvata lugens) was high, i.e. above the level considered economically significant.
Even though the pest level was high, at the time of treatment the plants had already reached full height and produced panicles, so the treatment with Compound 3 was too late to noticeably increase crop vigor rated by general external appearance (e.g., plant height, number of panicles). Nevertheless, the treatments substantially benefited crop vigor as measured by harvest yield. Harvest yields from the crops treated with 6.25, 12.5, 25 and 50 g a.i./ha of Compound 3 were 4630, 4830, 4730 and 4930 kg/ha, respectively, compared to 2630 kg/ha from the untreated controls.

[4] = Matapeake Soil/Sand, 0.2 mg a.i./pot
[5] = Matapeake Soil/Sand, 2.5 mg a.i./pot
[6] = Redi-Earth Soil, 0.2 mg a.i./pot
[7] = Redi-Earth Soil, 2.5 mg a.i./pot

Compound: O=c1c(-c2cccc(C(F)(F)F)c2)c([O-])[n+](Cc2cncnc2)c2ccccn12 [Compound 3, 2-hydroxy-4-oxo-1-(5-pyrimidinylmethyl)-3-[3-(trifluoromethyl)phenyl]-4H-pyrido[1,2-a]pyrimidinium inner salt]
- Height (cm) at Days after Treatment 0 days [1, 4]: 22 cm
- Height (cm) at Days after Treatment 7 days [1, 4]: 49 cm
- Height (cm) at Days after Treatment 14 days [1, 4]: 66 cm
- Height (cm) at Days after Treatment 21 days [1, 4]: 76 cm
- Height (cm) at Days after Treatment 28 days [1, 4]: 87 cm
- Height (cm) at Days after Treatment 0 days [1, 5]: 22 cm
- Height (cm) at Days after Treatment 7 days [1, 5]: 46 cm
- Height (cm) at Days after Treatment 14 days [1, 5]: 65 cm
- Height (cm) at Days after Treatment 21 days [1, 5]: 78 cm
- Height (cm) at Days after Treatment 28 days [1, 5]: 88 cm
- Height (cm) at Days after Treatment 0 days [1, 6]: 22 cm
- Height (cm) at Days after Treatment 7 days [1, 6]: 53 cm
- Height (cm) at Days after Treatment 14 days [1, 6]: 85 cm
- Height (cm) at Days after Treatment 21 days [1, 6]: 111 cm
- Height (cm) at Days after Treatment 28 days [1, 6]: 131 cm
- Height (cm) at Days after Treatment 0 days [1, 7]: 21 cm
- Height (cm) at Days after Treatment 7 days [1, 7]: 53 cm
- Height (cm) at Days after Treatment 14 days [1, 7]: 85 cm
- Height (cm) at Days after Treatment 21 days [1, 7]: 111 cm
- Height (cm) at Days after Treatment 28 days [1, 7]: 137 cm
- growth enhancing effect on maize plants ([1]; pest-free environment, nutrient constrained, both soils, 0.2 or 2.5 mg per pot): little growth enhancing effect was noticeable
- crop vigor (visual rating, 0 to 200% scale, control = 100%) [2]: 100%
- harvest yield ([3]; 6.25 g a.i./ha with 30 g a.i./ha indoxacarb and 20 g a.i./ha chlorantraniliprole): 4630 kg/ha
- harvest yield ([3]; 12.5 g a.i./ha with 30 g a.i./ha indoxacarb and 20 g a.i./ha chlorantraniliprole): 4830 kg/ha
- harvest yield ([3]; 25 g a.i./ha with 30 g a.i./ha indoxacarb and 20 g a.i./ha chlorantraniliprole): 4730 kg/ha
- harvest yield ([3]; 50 g a.i./ha with 30 g a.i./ha indoxacarb and 20 g a.i./ha chlorantraniliprole): 4930 kg/ha
- crop vigor (visual rating, 0 to 200% scale, control = 100%) ([3]; all application rates (6.25, 12.5, 25 or 50 g a.i./ha) with 30 g a.i./ha indoxacarb and 20 g a.i./ha chlorantraniliprole, 21 days after application, Nilaparvata lugens level high): 100%
